According to ChEMBL document CHEMBL3045060, “Synthesis of some urea and thiourea derivatives of naphtha[1,2-d]thiazol-2-amine as anti-Parkinsonian agents that cause neuroprotection against haloperidol-induced oxidative stress in mice” (2009):

Key:
Assay type in all cases: functional
Mus musculus [1] = assay: Neuroprotective activity in haloperidol-induced catalepsy Mus musculus Swiss albino (mouse) model assessed as mean descent time at 100 mg/kg, po administered 30 min before haloperidol challenge measured at 30 min post challenge
Mus musculus [2] = assay: Neuroprotective activity in haloperidol-induced catalepsy Mus musculus Swiss albino (mouse) model assessed as mean cumulative descent time at 100 mg/kg, po administered 30 min before haloperidol challenge (reference value: 33 +/- 1.34 min)
Mus musculus [3] = assay: Neuroprotective activity in haloperidol-induced catalepsy Mus musculus Swiss albino (mouse) model assessed as mean descent time at 100 mg/kg, po administered 30 min before haloperidol challenge measured at 120 min post challenge
Mus musculus [4] = assay: Neuroprotective activity in Mus musculus Swiss albino (mouse) model assessed as reduction in haloperidol-induced catalepsy at 100 mg/kg, ip administered 30 min before haloperidol challenge measured for 30 to 180 min; design: scale not given: the % may be the effect or the level left; conditions: route intraperitoneal
Mus musculus [5] = assay: (§1) Neuroprotective activity in haloperidol-induced catalepsy Mus musculus Swiss albino (mouse) model assessed as GSH level per gram of brain tissue at 100 mg/kg, po administered 30 min before haloperidol challenge measured after 4 hr post challenge by spectrophotometry (reference value: 23.45 +/- 0.23 ug/g tissue)
Mus musculus [6] = assay: as §1, with “GSH-Px activity” for “GSH level”, “mg protein in” for “gram of”, “homogenate” for “tissue”, “2.129” for “23.45”, “0.06 U/mg protein)” for “0.23 ug/g tissue)”
Mus musculus [7] = assay: Neuroprotective activity in haloperidol-induced catalepsy Mus musculus Swiss albino (mouse) model assessed as mean descent time at 100 mg/kg, po administered 30 min before haloperidol challenge measured at 60 min post challenge
Mus musculus [8] = assay: Neuroprotective activity in haloperidol-induced catalepsy Mus musculus Swiss albino (mouse) model assessed as mean descent time at 100 mg/kg, po administered 30 min before haloperidol challenge measured at 180 min post challenge
Mus musculus [9] = assay: Neuroprotective activity in haloperidol-induced catalepsy Mus musculus Swiss albino (mouse) model assessed as mean descent time at 100 mg/kg, po administered 30 min before haloperidol challenge measured at 150 min post challenge
Mus musculus [10] = assay: Neuroprotective activity in haloperidol-induced catalepsy Mus musculus Swiss albino (mouse) model assessed as mean descent time at 100 mg/kg, po administered 30 min before haloperidol challenge measured at 90 min post challenge
Mus musculus [11] = assay: as §1, with “inhibition of MDA equivalent TBARS release” for “GSH level”, “mg protein in” for “gram of”, “homogenate” for “tissue”, “1.157” for “23.45”, “0.06 nmol/mg protein)” for “0.23 ug/g tissue)”
Mus musculus [12] = assay: Neuroprotective activity in haloperidol-induced catalepsy Mus musculus Swiss albino (mouse) model assessed as Cu-Zn-SOD activity per gram protein in brain homogenate at 100 mg/kg, po administered 30 min before haloperidol challenge measured after 4 hr post challenge by NBT reduction assay (reference value: 1.794 +/- 0.03 U/g protein)

COc1ccccc1NC(=O)Nc1nc2c(ccc3ccccc32)s1
Time (Mus musculus [1]): 11 s | Time (Mus musculus [2]): 6.43 min | Time (Mus musculus [3]): 87 s | Activity (Mus musculus [4]): 76.9% | Activity (Mus musculus [5]): 16.8 µg/g | Activity (Mus musculus [6]): 1.83 U/mg | Time (Mus musculus [7]): 28 s | Time (Mus musculus [8]): 108 s | Time (Mus musculus [9]): 109 s | Time (Mus musculus [10]): 43 s | Activity (Mus musculus [11]): 2.504 nmol/mg protein | Activity (Mus musculus [12]): 1.622 U/g protein
